Measured values published in patent US20030083484A1, “Antisense modulation of short heterodimer partner-1 expression” (priority 2001, published 2003).
Strand notation (5' to 3'): a small letter for the sugar, then the base; units joined by * are phosphorothioate-linked, units joined directly phosphodiester-linked; [ ] holds rarer units or linkages, { } end groups; capitals alone tell only the bases. e = 2'-O-(2-methoxyethyl) (MOE); [5mC] = 5-methylcytosine; d = 2'-deoxy (DNA)

Tests used:
[1] = tested on: mouse short heterodimer partner-1 mRNA; assay: Inhibition of mouse short heterodimer partner-1 mRNA levels in primary hepatocytes, quantitative real-time PCR; assay type: cell-based; design: concentration or dose not given beside the values; settings: averages from two experiments
Method: (§1) Primary mouse hepatocytes were prepared from CD-1 mice purchased from Charles River Labs (Wilmington, Mass.) and were routinely cultured in Hepatoyte Attachment Media (Gibco) supplemented with 10% Fetal Bovine Serum (Gibco/Life Technologies, Gaithersburg, Md.), 250 nM dexamethasone (Sigma), and 10 nM bovine insulin (Sigma). Cells were seeded into 96-well plates (Falcon-Primaria #3872) at a density of 10000 cells/well for use in RT-PCR analysis.
(§2) Cells were harvested 16-24 hours after oligonucleotide treatment.
(§3) Vacuum was applied for 15 seconds. […] The elution step was repeated with an additional 60 μL water.
(§4) Total RNA is quantified using RiboGreen™ RNA quantification reagent from Molecular Probes.
(§5) Probes and primers to mouse short heterodimer partner-1 were designed to hybridize to a mouse short heterodimer partner-1 sequence, using published sequence information (GenBank accession number L75567, incorporated herein as SEQ ID NO: 10).
All cytidine residues are 5-methylcytidines. […] Data are averages from two experiments. If present, “N.D.” indicates “no data”.

[2] = tested on: mouse short heterodimer partner-1 mRNA; assay: Dose-response study: inhibition of mouse short heterodimer partner-1 mRNA levels in primary hepatocyte cells, quantitative real-time PCR; assay type: cell-based; settings: averages from two experiments
Method: as §1, §2, §3, §4, §5
In accordance with the present invention, a subset of the antisense oligonucleotides in Example 16 were further investigated in dose-response studies. Treatment doses were 50, 150 and 300 nM.

Substance	% INHIB (inhibition of mouse short heterodimer partner-1 mRNA levels) [1]	Percent Inhibition of mouse short heterodimer partner-1 mRNA levels ([2]; 50 nM oligonucleotide) [%]	Percent Inhibition of mouse short heterodimer partner-1 mRNA levels ([2]; 150 nM oligonucleotide) [%]	Percent Inhibition of mouse short heterodimer partner-1 mRNA levels ([2]; 300 nM oligonucleotide) [%]
148279 (antisense eG*eG*eT*eA*eG*dA*dG*dG*d[5mC]*d[5mC]*dA*dT*dG*dA*dG*eG*eA*eG*eG*eA) [compound 148279]	43%	–	–	–
148280 (antisense eG*eT*eG*e[5mC]*e[5mC]*dT*dG*dG*dA*dA*dT*dG*dT*dT*d[5mC]*eT*eT*eG*eA*eG) [compound 148280]	33%	–	–	–
148281 (antisense eA*eG*eA*eA*eG*dA*dG*dA*dT*d[5mC]*dT*dA*d[5mC]*d[5mC]*dA*eG*eA*eA*eG*eG) [compound 148281]	48%	–	–	–
148282 (antisense eT*eG*eA*eT*eG*dT*d[5mC]*dA*dA*d[5mC]*dG*dT*d[5mC]*dT*d[5mC]*e[5mC]*e[5mC]*eA*eT*eG) [compound 148282]	22%	–	–	–
148284 (antisense eG*eA*eG*eG*e[5mC]*dA*d[5mC]*d[5mC]*dA*dG*dA*d[5mC]*dT*d[5mC]*d[5mC]*eA*eT*eT*e[5mC]*e[5mC]) [compound 148284]	77%	6	55	86
148285 (antisense eA*e[5mC]*eA*eG*eT*dT*dA*dG*dT*dA*dG*dT*dG*dT*dA*e[5mC]*eA*e[5mC]*eT*eG) [compound 148285]	50%	–	–	–
148286 (antisense eA*eG*eT*e[5mC]*eA*dT*d[5mC]*dA*dA*dG*dG*dG*d[5mC]*dT*dT*eG*e[5mC]*eT*eG*eG) [compound 148286]	71%	42	58	80
148287 (antisense eG*eT*eT*e[5mC]*eT*dG*dT*dA*d[5mC]*dA*dA*dA*dG*dT*d[5mC]*eA*eG*eG*eA*eG) [compound 148287]	74%	44	71	89
ISIS 148262: 2′-MOE gapmer, phosphorothioate, TGACTGGCCGGAGCTCATGG, targets mouse short heterodimer partner-1 RNA (antisense eT*eG*eA*e[5mC]*eT*dG*dG*d[5mC]*d[5mC]*dG*dG*dA*dG*d[5mC]*dT*e[5mC]*eA*eT*eG*eG)	at least 50%	–	–	–
ISIS 148264: 2′-MOE gapmer, phosphorothioate, GCATACAGAATAGTCGGACG, targets mouse short heterodimer partner-1 RNA (antisense eG*e[5mC]*eA*eT*eA*d[5mC]*dA*dG*dA*dA*dT*dA*dG*dT*d[5mC]*eG*eG*eA*e[5mC]*eG)	at least 50%	–	–	–
ISIS 148269: 2′-MOE gapmer, phosphorothioate, TAGGACATCCAAGGCCTCCC, targets mouse short heterodimer partner-1 RNA (antisense eT*eA*eG*eG*eA*d[5mC]*dA*dT*d[5mC]*d[5mC]*dA*dA*dG*dG*d[5mC]*e[5mC]*eT*e[5mC]*e[5mC]*e[5mC])	at least 50%	–	–	–
ISIS 148271: 2′-MOE gapmer, phosphorothioate, AACCCAAGCAGGAAGAGAGG, targets mouse short heterodimer partner-1 RNA (antisense eA*eA*e[5mC]*e[5mC]*e[5mC]*dA*dA*dG*d[5mC]*dA*dG*dG*dA*dA*dG*eA*eG*eA*eG*eG)	at least 50%	–	–	–
ISIS 148272: 2′-MOE gapmer, phosphorothioate, CGGAGCCTCAGCCACCTCGA, targets mouse short heterodimer partner-1 RNA (antisense e[5mC]*eG*eG*eA*eG*d[5mC]*d[5mC]*dT*d[5mC]*dA*dG*d[5mC]*d[5mC]*dA*d[5mC]*e[5mC]*eT*e[5mC]*eG*eA)	at least 50%	–	–	–
ISIS 148276: 2′-MOE gapmer, phosphorothioate, AGAAAGACTCCAGGCAGCGC, targets mouse short heterodimer partner-1 RNA (antisense eA*eG*eA*eA*eA*dG*dA*d[5mC]*dT*d[5mC]*d[5mC]*dA*dG*dG*d[5mC]*eA*eG*e[5mC]*eG*e[5mC])	at least 50%	–	–	–
ISIS 148277: 2′-MOE gapmer, phosphorothioate, TTCAGGTACGCATACTCCTT, targets mouse short heterodimer partner-1 RNA (antisense eT*eT*e[5mC]*eA*eG*dG*dT*dA*d[5mC]*dG*d[5mC]*dA*dT*dA*d[5mC]*eT*e[5mC]*e[5mC]*eT*eT)	at least 50%	–	–	–
ISIS 148284: 2′-MOE gapmer, phosphorothioate, GAGGCACCAGACTCCATTCC, targets mouse short heterodimer partner-1 RNA (antisense eG*eA*eG*eG*e[5mC]*dA*d[5mC]*d[5mC]*dA*dG*dA*d[5mC]*dT*d[5mC]*d[5mC]*eA*eT*eT*e[5mC]*e[5mC])	at least 50%	–	–	–
ISIS 148285: 2′-MOE gapmer, phosphorothioate, ACAGTTAGTAGTGTACACTG, targets mouse short heterodimer partner-1 RNA (antisense eA*e[5mC]*eA*eG*eT*dT*dA*dG*dT*dA*dG*dT*dG*dT*dA*e[5mC]*eA*e[5mC]*eT*eG)	at least 50%	–	–	–
ISIS 148286: 2′-MOE gapmer, phosphorothioate, AGTCATCAAGGGCTTGCTGG, targets mouse short heterodimer partner-1 RNA (antisense eA*eG*eT*e[5mC]*eA*dT*d[5mC]*dA*dA*dG*dG*dG*d[5mC]*dT*dT*eG*e[5mC]*eT*eG*eG)	at least 50%	–	–	–
ISIS 148287: 2′-MOE gapmer, phosphorothioate, GTTCTGTACAAAGTCAGGAG, targets mouse short heterodimer partner-1 RNA (antisense eG*eT*eT*e[5mC]*eT*dG*dT*dA*d[5mC]*dA*dA*dA*dG*dT*d[5mC]*eA*eG*eG*eA*eG)	at least 50%	–	–	–
